From PubChem BioAssay (NCI)
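In this assay, cells in 96-well plates receive the compound at five concentrations for 48 hours. Endpoints are linearly interpolated between the surrounding concentrations. GI50 marks 50% less growth. TGI marks complete inhibition of growth.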

Columns and labels:
Assay in all cases: DTP human tumour cell line panel, 48 h
[1] = system: 786-0 renal
[2] = system: A498 renal
[3] = system: A549 NSCLC
[4] = system: ACHN renal
[5] = system: BT-549 breast
[6] = system: CAKI-1 renal
[7] = system: CCRF-CEM leukemia
[8] = system: COLO 205 colon
[9] = system: DU-145 prostate
[10] = system: EKVX NSCLC
[11] = system: HCC-2998 colon
[12] = system: HCT-116 colon
[13] = system: HCT-15 colon
[14] = system: HL-60(TB) leukemia
[15] = system: HOP-62 NSCLC
[16] = system: HOP-92 NSCLC
[17] = system: HS 578T breast
[18] = system: HT29 colon
[19] = system: IGROV1 ovarian
[20] = system: K-562 leukemia
[21] = system: KM12 colon
[22] = system: M14 melanoma
[23] = system: MALME-3M melanoma
[24] = system: MCF7 breast
[25] = system: MDA-MB-231 breast
[26] = system: MOLT-4 leukemia
[27] = system: NCI-H226 lung
[28] = system: NCI-H23 lung
[29] = system: NCI-H460 lung
[30] = system: NCI-H522 lung
[31] = system: NCI/ADR-RES ovarian
[32] = system: OVCAR-4 ovarian
[33] = system: OVCAR-5 ovarian
[34] = system: OVCAR-8 ovarian
[35] = system: PC-3 prostate
[36] = system: RPMI-8226 leukemia
[37] = system: RXF 393 renal
[38] = system: SF-268 CNS
[39] = system: SF-295 CNS
[40] = system: SF-539 CNS
[41] = system: SK-MEL-2 melanoma
[42] = system: SK-MEL-28 melanoma
[43] = system: SK-MEL-5 melanoma
[44] = system: SK-OV-3 ovarian
[45] = system: SN12C renal
[46] = system: SNB-19 CNS
[47] = system: SNB-75 CNS
[48] = system: SR leukemia
[49] = system: SW-620 colon
[50] = system: T-47D breast
[51] = system: TK-10 renal
[52] = system: U251 CNS
[53] = system: UACC-257 melanoma
[54] = system: UACC-62 melanoma
[55] = system: UO-31 renal

Which results are given for `O=C(Nc1ccc(F)cc1)c1cc(-c2ccc(F)cc2F)ccc1O`?
GI50 [1]: 3.31 µM; TGI [1]: 16.7 µM; GI50 [2]: 1.47 µM; TGI [2]: 4.13 µM; GI50 [3]: 3.25 µM; TGI [3]: > 100 µM; GI50 [4]: 2.77 µM; TGI [4]: 8.51 µM; GI50 [5]: 2.78 µM; TGI [5]: 18.6 µM; GI50 [6]: 1.95 µM; TGI [6]: 6 µM; GI50 [7]: 3.29 µM; TGI [7]: > 100 µM; GI50 [8]: 17.1 µM; TGI [8]: 50.1 µM; GI50 [9]: 3.33 µM; TGI [9]: > 100 µM; GI50 [10]: 2.61 µM; TGI [10]: 9.17 µM; GI50 [11]: 3.12 µM; TGI [11]: 42.8 µM; GI50 [12]: 2.81 µM; TGI [12]: 12.6 µM; GI50 [13]: 2.89 µM; TGI [13]: 13 µM; GI50 [14]: 1.93 µM; TGI [14]: 5.04 µM; GI50 [15]: 3.13 µM; TGI [15]: 17.1 µM; GI50 [16]: 1.47 µM; TGI [16]: 5.24 µM; GI50 [17]: 2.79 µM; TGI [17]: 9.62 µM; GI50 [18]: 12.7 µM; TGI [18]: > 100 µM; GI50 [19]: 3.45 µM; TGI [19]: > 100 µM; GI50 [20]: 2.81 µM; TGI [20]: > 100 µM; GI50 [21]: 3.03 µM; TGI [21]: 9.93 µM; GI50 [22]: 3.32 µM; TGI [22]: > 100 µM; GI50 [23]: 1.92 µM; TGI [23]: 5.64 µM; GI50 [24]: 2.31 µM; TGI [24]: 10.1 µM; GI50 [25]: 2.38 µM; TGI [25]: 6.47 µM; GI50 [26]: 2.57 µM; TGI [26]: 7.9 µM; GI50 [27]: 2.88 µM; TGI [27]: 9.82 µM; GI50 [28]: 2.47 µM; TGI [28]: 7.78 µM; GI50 [29]: 2.98 µM; TGI [29]: 12.8 µM; GI50 [30]: 1.83 µM; TGI [30]: 8.3 µM; GI50 [31]: 2.49 µM; TGI [31]: 8.51 µM; GI50 [32]: 2.74 µM; TGI [32]: 45.5 µM; GI50 [33]: 3.37 µM; TGI [33]: 37.8 µM; GI50 [34]: 3.2 µM; TGI [34]: > 100 µM; GI50 [35]: 2.78 µM; TGI [35]: 19.8 µM; GI50 [36]: 1.74 µM; TGI [36]: 6.38 µM; GI50 [37]: 2.75 µM; TGI [37]: 8.04 µM; GI50 [38]: 2.67 µM; TGI [38]: > 100 µM; GI50 [39]: 2.44 µM; TGI [39]: 7.55 µM; GI50 [40]: 3.65 µM; TGI [40]: 18.5 µM; GI50 [41]: 1.86 µM; TGI [41]: 5.57 µM; GI50 [42]: 2.9 µM; TGI [42]: > 100 µM; GI50 [43]: 1.56 µM; TGI [43]: 3.63 µM; GI50 [44]: 2.65 µM; TGI [44]: 8.99 µM; GI50 [45]: 2.36 µM; TGI [45]: 8.3 µM; GI50 [46]: 3.36 µM; TGI [46]: 31.9 µM; GI50 [47]: 1.84 µM; TGI [47]: 5.55 µM; GI50 [48]: 2.93 µM; TGI [48]: 80.3 µM; GI50 [49]: 3.4 µM; TGI [49]: > 100 µM; GI50 [50]: 1.75 µM; TGI [50]: 8.14 µM; GI50 [51]: 2.91 µM; TGI [51]: 23.2 µM; GI50 [52]: 3.23 µM; TGI [52]: 24.6 µM; GI50 [53]: 1.61 µM; TGI [53]: 6.97 µM; GI50 [54]: 1.39 µM; TGI [54]: 4.61 µM; GI50 [55]: 2.11 µM; TGI [55]: 8.67 µM
